This is an account of results in patent US20070254877A1, “Indole Derivative and Use for Treatment of Cancer” (Takada Pharmaceutical Company Limited, priority 2004, published 2007).

Counter-ions that a name gives are not always drawn. Where only a bound is given, the exact number is not on record here.

T1 sequence (P35968 786-1356 limits assumed): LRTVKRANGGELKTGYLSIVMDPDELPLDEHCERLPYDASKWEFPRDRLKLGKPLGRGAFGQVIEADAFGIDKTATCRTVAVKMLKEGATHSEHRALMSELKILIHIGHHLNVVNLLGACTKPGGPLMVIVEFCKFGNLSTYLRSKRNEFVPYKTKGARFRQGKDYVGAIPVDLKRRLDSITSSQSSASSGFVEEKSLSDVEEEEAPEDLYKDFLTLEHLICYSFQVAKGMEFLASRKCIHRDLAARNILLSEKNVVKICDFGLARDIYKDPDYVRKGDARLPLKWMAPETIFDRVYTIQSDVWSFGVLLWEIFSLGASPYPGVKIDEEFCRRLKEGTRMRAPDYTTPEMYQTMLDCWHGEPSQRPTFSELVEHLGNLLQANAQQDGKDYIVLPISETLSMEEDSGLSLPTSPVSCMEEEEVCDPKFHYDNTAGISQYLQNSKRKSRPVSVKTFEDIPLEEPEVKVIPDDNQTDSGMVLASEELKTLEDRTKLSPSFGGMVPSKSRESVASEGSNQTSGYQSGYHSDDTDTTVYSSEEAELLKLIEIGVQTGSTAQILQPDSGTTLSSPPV

This assay concerns the target T1, VEGFR2 intracellular domain protein (Homo sapiens, UniProt P35968).
T1 construct: made in house; host or cells: SF-21 insect cells infected with recombinant baculovirus BAC-VEGFR2
Description: Determination of VEGF Receptor 2 Kinase (VEGFR2) inhibitory activity (AlphaScreen). The class given is biochemical. Conditions: test compound at 1 μM; ATP 25 μM buffer, 25° C., 5 min; read-out: kinase inhibitory rate (%). The method, then:
Human VEGF receptor 2 (hereinafter to be abbreviated as VEGFR2) gene was cloned by PCR using cDNA Libraries Human Placenta (Clontech) as a template. The primer used for PCR was prepared from nucleotide sequence (Genbank Accession AF035121) information of VEGFR2 gene by adding a nucleotide sequence encoding flag peptide and a restriction enzyme recognition sequence to a nucleotide sequence (2671-4374 of Genbank Accession AF035121) encoding the VEGFR2 intracellular domain region, so that the protein contains an N-terminal flag tag. The primer nucleotide sequence is shown below.
SF-21 cells were sown at 1×10^6 cells/ml to Sf-900II SFM medium (1 L, Invitrogen) containing 10% fetal bovine serum (trace), 50 mg/L gentamicin (Invitrogen) and 0.1% Pluronic F-68 (Invitrogen), and shaking culture was performed using a 2 L volume Erlenmeyer flask at 27° C., 100 rpm. After culturing for 24 hrs, recombinant baculovirus BAC-VEGFR2 (13.4 mL) was added, and the mixture was further cultured for 3 days. The culture medium was centrifuged at 2,000 rpm for 5 min to give virus-infected cells. The infected cells were washed with a phosphate buffered saline (Invitrogen), centrifuged under the same conditions, and the cells were preserved at −80° C. The cryopreserved cells were thawed in ice, suspended in buffer A (50 mM Tris buffer (30 mL, pH 7.4) containing 20% glycerol, 0.15 M NaCl) supplemented with Complete Protease Inhibitor (Boehringer), and ruptured 3 times with a Polytron homogenizer (Kinematica) at 20,000 rpm for 30 sec. The rupture medium was clarified by centrifugation at 40,000 rpm for 30 min and filtered with a 0.45 μm filter. The filtrate was passed through a column packed with Anti-FLAG M2 Affinity Gel (4 mL, Sigma) at a flow rate of about 0.5 mL/min. The column was washed with buffer A, and eluted with buffer A containing 100 μg/mL of FLAG peptide. The eluate was concentrated with Vivaspin 20 (Vivascience) having a molecular weight cut off of 30K. The buffer of this concentrate was exchanged using NAP™ 25 column (Amersham Bioscience) equilibrated with buffer A. The fractions containing VEGFR2 intracellular domain protein were collected, glycerol was added to the final concentration of 50% and cryopreserved at −80° C.
A test compound dissolved in dimethyl sulfoxide (DMSO) was diluted with a buffer (50 mM Tris-HCl (pH 7.5), 5 mM MgCl2, 5 mM MnCl2, 2 mM dithiothreitol, 0.01% Tween-20). To this compound solution (5 μl) was added a buffer […] containing 50 ng/ml of VEGFR2 intracellular domain protein and 250 ng/ml of biotin labeled polypeptide biotinyl-poly-Glu:Tyr (4:1) (CIS bio International). To the obtained mixture was added a buffer (10 μl) containing ATP (25 μM), the mixture was allowed to react at 25° C. for 5 min and the reaction was quenched with 25 μl of a stop solution (100 mM EDTA disodium salt, 62.5 mM HEPES buffer (pH 7.4), 250 mM NaCl, 0.1% bovine serum albumin, 10 μg/ml AlphaScreen assay streptavidin donor beads (Streptavidin Donor beads: PerkinElmer), 10 μg/ml AlphaScreen assay anti-phosphotyrosine recognition antibody PY-100 binding acceptor beads (Anti-phosphotyrosine (P-Tyr-100) Acceptor beads: PerkinElmer)). The reaction solution was allowed to stand at 25° C. for 16 hrs, and the […] using a plate reader Fusion™ (manufactured by PerkinElmer). The kinase inhibitory rate (%) of the test compound was calculated by the following formula: Inhibitory rate (%)=(1−(count of test compound−blank)÷(control−blank))×100
The count of the solution reacted without addition of the compound was used as a “control”, and the count of the solution without the compound and ATP was used as a “blank”.
`O=C(c1ccc2[nH]c3c(c2c1)CCCc1cn[nH]c1-3)N1CCC(N2CCCCCC2)CC1` [Example 11, 8-[(4-azepan-1-ylpiperidin-1-yl)carbonyl]-4,5,6,11-tetrahydro-1H-pyrazolo[4′,3′:6,7]cyclohepta[1,2-b]indole hydrochloride]: the inhibition at 1 µM is no less than 90%.

In the case of `O=C(c1ccc2[nH]c3c(c2c1)CCCc1cn[nH]c1-3)N1CCC(N2CCSCC2)CC1` [Example 15, 8-[(4-thiomorpholin-4-ylpiperidin-1-yl)carbonyl]-4,5,6,11-tetrahydro-1H-pyrazolo[4′,3′:6,7]cyclohepta[1,2-b]indole hydrochloride], the inhibition at 1 µM is no less than 90%.

As for `O=C(c1ccc2[nH]c3c(c2c1)CCCc1cn[nH]c1-3)N1CCC(NCc2ccccc2)CC1` [Example 17, N-benzyl-1-(4,5,6,11-tetrahydro-1H-pyrazolo[4′,3′:6,7]cyclohepta[1,2-b]indol-8-ylcarbonyl)piperidin-4-amine hydrochloride], the inhibition at 1 µM is no less than 90%.

For the molecule `O=C(c1ccc2[nH]c3c(c2c1)CCCc1cn[nH]c1-3)N1CCC(O)(c2ccc(F)cc2)CC1` [Example 41, 4-(4-fluorophenyl)-1-(4,5,6,11-tetrahydro-1H-pyrazolo[4′,3′:6,7]cyclohepta[1,2-b]indol-8-ylcarbonyl)piperidin-4-ol], the inhibition at 1 µM is no less than 80%.

Turning to `O=C(c1ccc2[nH]c3c(c2c1)CCCc1cn[nH]c1-3)N1CCC(O)(c2cccc(F)c2)CC1` [Example 42, 4-(3-fluorophenyl)-1-(4,5,6,11-tetrahydro-1H-pyrazolo[4′,3′:6,7]cyclohepta[1,2-b]indol-8-ylcarbonyl)piperidin-4-ol], the inhibition at 1 µM is no less than 80%.

Consider `O=C(c1ccc2[nH]c3c(c2c1)CCCc1cn[nH]c1-3)N1CCC(O)(c2ccccc2F)CC1` [Example 43, 4-(2-fluorophenyl)-1-(4,5,6,11-tetrahydro-1H-pyrazolo[4′,3′:6,7]cyclohepta[1,2-b]indol-8-ylcarbonyl)piperidin-4-ol], for which the inhibition at 1 µM was no less than 80%.

As for `O=C(c1ccc2[nH]c3c(c2c1)CCCc1cn[nH]c1-3)N1CCC(O)(c2ccc(Cl)cc2)CC1` [Example 44, 4-(4-chlorophenyl)-1-(4,5,6,11-tetrahydro-1H-pyrazolo[4′,3′:6,7]cyclohepta[1,2-b]indol-8-ylcarbonyl)piperidin-4-ol], the inhibition at 1 µM is no less than 80%.

`O=C(c1ccc2[nH]c3c(c2c1)CCCc1cn[nH]c1-3)N1CCC(O)(c2cccc(Cl)c2)CC1` [Example 45, 4-(3-chlorophenyl)-1-(4,5,6,11-tetrahydro-1H-pyrazolo[4′,3′:6,7]cyclohepta[1,2-b]indol-8-ylcarbonyl)piperidin-4-ol]: the inhibition at 1 µM is no less than 80%.

Consider `O=C(c1ccc2[nH]c3c(c2c1)CCCc1cn[nH]c1-3)N1CCC(O)(c2ccccc2Cl)CC1` [Example 46, 4-(2-chlorophenyl)-1-(4,5,6,11-tetrahydro-1H-pyrazolo[4′,3′:6,7]cyclohepta[1,2-b]indol-8-ylcarbonyl)piperidin-4-ol], for which the inhibition at 1 µM was no less than 80%.

Consider `O=C(c1ccc2[nH]c3c(c2c1)CCCc1cn[nH]c1-3)N1CCC(O)(c2ccc(C(F)(F)F)cc2)CC1` [Example 47, 1-(4,5,6,11-tetrahydro-1H-pyrazolo[4′,3′:6,7]cyclohepta[1,2-b]indol-8-ylcarbonyl)-4-[4-(trifluoromethyl)phenyl]piperidin-4-ol], for which the inhibition at 1 µM is no less than 80%.

On to `O=C(c1ccc2[nH]c3c(c2c1)CCCc1cn[nH]c1-3)N1CCC(O)(c2cccc(C(F)(F)F)c2)CC1` [Example 48, 1-(4,5,6,11-tetrahydro-1H-pyrazolo[4′,3′:6,7]cyclohepta[1,2-b]indol-8-ylcarbonyl)-4-[3-(trifluoromethyl)phenyl]piperidin-4-ol], for which the inhibition at 1 µM is no less than 80%.

As for `O=C(c1ccc2[nH]c3c(c2c1)CCCc1cn[nH]c1-3)N1CCC(O)(c2ccccc2C(F)(F)F)CC1` [Example 49, 1-(4,5,6,11-tetrahydro-1H-pyrazolo[4′,3′:6,7]cyclohepta[1,2-b]indol-8-ylcarbonyl)-4-[2-(trifluoromethyl)phenyl]piperidin-4-ol], the inhibition at 1 µM was no less than 80%.
